In general, IC50 refers to the concentration at which inhibition is half-maximal. The Km is the substrate concentration at which the rate is half of its maximum.

We go through twelve molecules from article PMC4746011, “IspH–RPS1 and IspH–UbiA: “Rosetta stone” proteins” (Chemical Science, 2015).

Series [1] concerns the target T1, CthIspH–RPS1 (Acetivibrio thermocellus (Clostridium thermocellum), UniProt A3DDC0). Description: CthIspH–RPS1 inhibition assay (methyl viologen method). On IC50 against CthIspH–RPS1: 40 nM enzyme, 50 µM HMBPP, 40 µM dithionite. The series is classed as biochemical. On the procedure:
(§1) The CthIspH kinetics and inhibition assays were performed by using the methyl viologen method described previously.[27] […] The reactions were monitored at 606 nm. K m and k cat were fitted by using a Michaelis–Menten relation in Origin 9.1. The extinction coefficient for the methyl viologen radical cation at 606 nm was taken to be 13 700 M^–1 cm^–1.[28]

The subject of series [2] is AaIspH. Also noted: method as in PMID 24481599, PMID 20426416. The following applies: Fig. 5a bottom value; read-out: IC50 against AaIspH; cited from earlier work.
The target in series [3] is T1, CthIspH–RPS1. Briefly: CthIspH–RPS1 Michaelis–Menten kinetics (methyl viologen assay). To be noted: substrate HMBPP, room temperature. The series is classed as biochemical. How it is done: as §1
Substrate consumption and product formation were also confirmed by LC-MS (Fig. S3 ^†) and NMR analysis.

Series [4] relates to IspH from the thermophile Aquifex aeolicus. Also noted: method as in PMID 24481599. The following applies: A. aeolicus IspH; cited from earlier work.
Substrate in series [5]: C/C(=C\COP(=O)(O)OP(=O)(O)O)CO
Description: purified protein, by the assay type. The following applies: other: substrate HMBPP, room temperature.

Setting [6] is: read-out: IC50 against CthIspH–RPS1.

Where two headings read alike, the source gives them in different places.

In the case of `C#CCOP(=O)(O)OP(=O)(O)O` [Compound 4], in series [1] (setting [6]), the IC50 was determined as 8.8 µM.

As to `C#CCCOP(=O)(O)OP(=O)(O)O` [Compound 5], the values for the IC50 in series [1] (setting [6]) and in series [2] were 3.3 µM and 0.45 µM, respectively. Take `C#CCCCOP(=O)(O)OP(=O)(O)O` [Compound 6]: the IC50 in series [1] (setting [6]) came to 47 µM. Take `O=P(O)(O)OP(=O)(O)OCc1cccnc1` [Compound 7]: the IC50 in series [1] (setting [6]) was found to be 150 µM. For `O=P(O)(O)OP(=O)(O)OCCc1cccnc1` [Compound 8], the IC50 in series [1] (setting [6]) was 240 µM. `O=P(O)(O)OP(=O)(O)OCCCc1cccnc1` [Compound 9]: the IC50 in series [1] (setting [6]) is 490 µM.

On to `O=P(O)(O)OP(=O)(O)OCc1ccncc1` [Compound 10], for which the IC50 in series [1] (setting [6]) is 120 µM.

On to `O=P(O)(O)OP(=O)(O)OCC#CCO` [Compound 11], for which the IC50 in series [1] (setting [6]) was found to be 92 µM.

`CC#CCOP(=O)(O)OP(=O)(O)O` [Compound 12]: the half-maximal inhibitory concentration (IC50) in series [1] (setting [6]) is 760 µM. Regarding `O=P(O)(O)OP(=O)(O)SCC#CCO` [Compound 13, 4-Hydroxybut-2-ynyl-S-thiolodiphosphate], half-maximal inhibition in series [1] (IC50) was put at 3.8 µM. Also, the “activity against CthIspH–RPS1 (in words)” value in series [1] (inhibition of catalytic activity) is listed as “very active”. On to `C/C(=C\COP(=O)(O)OP(=O)(O)O)CO` [HMBPP, (E)-1-hydroxy-2-methyl-but-2-enyl 4-diphosphate], for which the kcat in series [3] stood at 56 min^–1. Moreover, in series [4], the Michaelis-Menten constant (Km) is 7 µM and the kcat is given as 1.0 s^–1.

B1: CthIspH–RPS1 (Acetivibrio thermocellus ATCC 27405) (protein)
chain: MEIIVAKSAGFCFGVSNAVKTVNNLLENQKEPIYTYGPIIHNAQVVDLFTSKGVKKIDDIDEAEPNGHIVIRAHGVTPDIYKKISDKGLILEDATCPYVKKIHNLVKEKSEEGYKIIIVGDRNHPEVIGINGWCNNQAYIVDSVDDVEKFPTSDEKVCVVAQTTITNEKWLEVNTALKKKFKNILKFDTICSATSRRQNEAEEIAKNVDMMIIIGGKNSSNTQKLYDICKKHCNLTYKIETSGDLPPVDIKKIKKVGISAGASTPDWVIEEVIKKMSELNKQGMVDILENDGEIDFANAFENSFVRIHAGDTVKGKIIGFNSNEVFVDLGYKADGIIPLEEYTDDPNFNIEKEVKIGEEVEVLVEMVNDGEGNVRLSKRKVDAIKSWDDIVKAYENKTPVNAYVVEVVKGGVIASYKGVRIFVPASQVSDRYVKDLNEFLKRSITVRILELNEKRRKVVGSARVIIEEEKEALANRTWNSMEVGKVFKGTVKSLTDFGAFVDIGGVDGLIHISELSWTRVKHPSEVLKVGDEVEVTVLEFDKEKKKVSLGYRKMEDNPWYKIEEKYKVGDVVKVTVLRFAPFGAFVELEKGVDGLVHISQISSKRLAKVEDALEIGMKVDAKIIEVDGENKKISLSIKEVMPIDPPSSKSESKAKDGSEAKETSANTEEEAEPTEHREDMNVTVEDLVSKTTQS
With B1, the Km in series [5] was 15 µM.
